According to US8017350B2, “Glimepiride- and insulin-induced glycosylphosphatidylinositol-specific phospholipase C regulation” (Sanofi-Aventis Deutschland GmbH, priority 2004, dated 2011):

What was measured:
GPI-PLC (T. brucei) = target: T1, GPI-PLC (T. brucei) (Trypanosoma brucei brucei, UniProt P09194); test: GPI-PLC (T. brucei) assay, human placental aP substrate, TX-114 partitioning; format: biochemical
T1 construct: purchased Oxford Glycosystems (Oxford, UK)
Protocol: GPI-PLD (rat serum) was assayed according to “Hari et al. (1997) Biochim. Biophys. Acta 1355: 293-302” by incubation with 10 μl of human placental aP solution (100 U/ml in 10 mM Hepes/NaOH, pH 7.0, 150 mM NaCl) in 100 μl of 200 mM Tris/maleate (pH 7.0) and 1% Nonidet P-40 for 10 min at 37° C. and subsequent termination of the reaction by addition of 0.4 ml of ice-cold stop buffer (10 mM Hepes/NaOH, pH 7.0, 150 mM NaCl, 0.1 mM MgCl2 and 0.01 mM zinc acetate). GPI-PLC (T. brucei) was assayed as described in “Mensa-Wilmot et al. (1995) Methods Enzymol. 250: 641-655” by incubation with 5 μl of human placental aP solution (see above) in 50 μl of 50 mM Tris/HCl (pH 8.0), 0.25% Nonidet P-40 and 5 mM EDTA for 30 min at 37° C. and subsequent termination of the reaction by addition of 0.45 ml of stop buffer. PI-PLC (B. cereus) and adipocyte GPI-PLC (5-25 μg plasma membranes or hc/lcDIGs) were assayed by incubation with 10 μl of bovine erythrocyte acetylcholinesterase (AChE) solution (12 U/ml in 10 mM Tris/HCl, pH 7.4, 144 mM NaCl, 0.1% TX-100) in 100 μl of 20 mM Hepes/KOH (pH 7.8), 144 mM NaCl, 0.1% TX-100, 0.2 mM MgCl2 for 1 h at 25° C. and subsequent termination by adding 5 μl of glacial acetic acid and then 0.4 ml of 10 mM Tris/HCl (pH 7.4), 144 mM NaCl. Each reaction mixture was subjected to TX-114 partitioning (see below).
Pelleted hc/lcDIGs (10-50 μg protein) or (G)PI-PLC reaction mixtures (0.5 ml) were separated into amphiphilic and hydrophilic proteins using partitioning between TX-114-enriched and depleted phases according to “Bordier, C., (1981) J. Biol, Chem. […]” by suspending in 1 ml of ice-cold TX-114 (1%), 25 mM Tris/HCl (pH 7.4), 144 mM NaCl or mixing with 0.5 ml of ice-cold TX-114 (2%), respectively. After incubation for 1 h on ice, the mixture was layered onto a cushion of 0.4 ml of 0.25 M sucrose and 25 mM Tris/HCl (pH 7.4) on ice. Phase separation was induced by warming up to 37° C. and subsequent centrifugation (10,000×g, 1 min). After re-extraction of the lower TX-114-enriched phase, aliquots of the pooled upper TX-114-depleted phase were measured for 5′-Nuc, aP and AChE activity or precipitated (15 polyethylene glycol 4000) for SDS-PAGE analysis.
Table 1: GPI-PLC of hcDIGs from rat adipocytes, GPI-PLC from T. brucei and PI-PLC from B. cereus were incubated with solubilized and partially purified bovine erythrocyte AChE or human placental aP in the absence or presence of increasing concentrations (0.05 μM-1 mM) of the inhibitors indicated under appropriate conditions (see Materials and Methods). Cleavage rate was calculated from the amount of hydrophilic AChE and aP activity recovered with the TX-114-depleted phase upon TX-114 partitioning. Means+SD from at least 3 independent incubations with partitioning/enzyme assays in quadruplicate are given. n.a., not applicable.
Purified (G)PI-PLC/D from B. cereus, rat serum and T. brucei as well as total plasma membranes (PM) and hc/lcDIGs prepared from isolated rat adipocytes were incubated (10 min, 30° C.) with increasing concentrations of GPI-2350 and then assayed for amphiphilic-to-hydrophilic conversion of AChE and aP by TX-114 partitioning (see Materials and Methods). The lipolytic activity was calculated as % of the control reaction in the absence of GPI-2350 (set at 100%). Means+SD of at least 4 independent incubations with AChE and aP activity measurements in triplicate each are given.

[1] = system: GPI-anchored and acylated signaling proteins (pp59Lyn, Gce1, 5'-Nuc, aP) in DIGs of rat adipocytes; test: Redistribution of pp59Lyn, Gce1, 5'-Nuc and aP from hcDIGs to lcDIGs in rat adipocytes; format: cell-based; conditions: GPI-2350 50 μM; Tab. 2
Stability of compound 3 = format: physicochemical; conditions: 4° C.
Protocol: As starting material, racemic 1,4,5,6-tetra-O-benzyl-myo-inositol (hereinafter: compound 1) was prepared by a procedure as disclosed in “Zhai, H.-X. et al. (1995) Tetrahedron Lett. 36: 7403-7406”. Compound 1 was then phosphorylated with dodecylphosphonic dichloride in the presence of triethylamine and dimethyl-aminopyridine to yield tetra-O-benzyl-myo-inositol-1,2-cyclo-dodecylphosphonic acid (hereinafter: compound 2). By catalytic hydrogenation with 10% Pd on charcoal, compound 2 was debenzylated to myo-inositol-1,2-cyclo-dodecylphosphonic acid (hereinafter: compound 3 or GPI-2350) as a mixture of diastereomers. For synthesis of compound 2 (FIG. 1), 1 g (1.8 mmol) of compound 1 was dissolved in 60 ml of methylene chloride and 1 ml of triethylamine; 200 mg dimethyl-aminopyridine and 1 g ([…]) of dodecylphosphonic dichloride were added. This reaction solution was allowed to stand (45 min, room temperature). Then 50 ml of ethyl acetate were added and the mixture was filtered on silica gel. After concentration of the solvent, the residue was purified by flash chromatography (n-heptane/ethyl acetate, 1/1, by vol.). Yield of compound 2: 580 mg (43%) of a white amorphous solid. TLC: n-heptane/ethyl acetate (1/1, by vol.), Rf=0.7. MS: (M+Li)^+=761.4, calculated […], M=754.9. […] MS: (M+Li)^+=401.2, calculated C18H35O7P, M=394.4.

T1 sequence (P09194 whole entry): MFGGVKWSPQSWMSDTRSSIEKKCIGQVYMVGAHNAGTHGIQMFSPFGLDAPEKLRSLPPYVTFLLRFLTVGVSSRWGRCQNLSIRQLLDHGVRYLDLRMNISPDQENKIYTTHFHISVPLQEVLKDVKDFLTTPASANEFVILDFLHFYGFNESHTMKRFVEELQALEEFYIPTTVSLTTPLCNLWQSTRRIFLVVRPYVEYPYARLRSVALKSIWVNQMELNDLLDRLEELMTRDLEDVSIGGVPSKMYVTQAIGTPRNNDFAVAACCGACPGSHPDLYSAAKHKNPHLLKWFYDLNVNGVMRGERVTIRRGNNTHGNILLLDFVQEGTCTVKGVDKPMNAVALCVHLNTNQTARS

With `CCCCCCCCCCCCP1(=O)O[C@@H]2[C@H](O)[C@@H](O)[C@H](O)[C@@H](O)[C@@H]2O1` (stereo partly drawn) [GPI-2350, myo-inositol-1,2-cyclo-dodecylphosphonic acid] the IC50 (GPI-PLC (T. brucei); IC50, Table 1, inhibitor 0.05 μM-1 mM) was 2000 to 5000 nM, the IC50 (GPI-PLC (T. brucei); apparent IC50, FIG. 2) was 2000 nM and the inhibition at 1000 µM (GPI-PLC (T. brucei); read-out: inhibition % at 1 mM) was 85%. The “reversal of half-maximal inhibition” value (GPI-PLC (T. brucei); upon 10-fold dilution with excess of fresh GPI-protein substrate) was “completely reversed”, the “effect on glimepiride-induced redistribution of 5'-Nuc, Gce1 and aP” value [1] was “completely eliminated” and the “stability as dried amorphous solid” value (Stability of compound 3) was “as dried amorphous solid for years at 4 °C”.
